Series [1] is described as follows: Metabolic (microsomal) stability assay. Format: in vitro ADME. The conditions noted are these: mouse and/or human liver microsomal metabolism assays, greater than 10, 20, 30, 40, 50, 60 mins or longer. How it is done:
All incubations are conducted in duplicate. […] Supernatants (40 µL) are transferred into clean 96-deep well plates.
The column temperature is maintained at 40 °C.
(Ct)/(C0) = e^−kt [formula]
On the technique in general: Liver microsomes are a subcellular fraction often used to study metabolism.

The next series has as its target T1, K-Ras G12S (Homo sapiens, UniProt P01116, G12S).
T1 construct: made in house; host or cells: E. coli (e.g., BL21 (DE3))
The series is described as follows: HTRF assay of the K-Ras / SOS1 interaction. Format: biochemical. The note with it: IC50 (against K-Ras G12D) to IC50 (against K-Ras G12S). The method in brief:
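GST-K-Ras G12S with anti-GST-Eu donor and His-hSOS1 with anti-6His-XL665 acceptor in ~5 mM HEPES pH 7.4, ~150 mM NaCl, 1 mM DTT, 0.05% BSA, 0.0025% Igepal. Read after ~10 min or longer; IC50 from 665/620 nm ratio, duplicates at 10 µM down to 0.01 µM.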
In general terms: TR-FRET usually uses a lanthanide donor and a delayed reading to cut background.

In series [2] the target is T2, KRAS protein (His-tagged GDP-loaded G12S 1-169) (Homo sapiens, UniProt P01116, G12S).
T2 construct: His-tagged GDP-loaded G12S 1-169
The series is described as follows: Covalent modification of KRAS protein, intact-protein LC-MS. The series is classed as binding. The note with it: 24hrs at room temperature, KRAS protein ~2 µM. The method in brief: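 His-tagged GDP-loaded KRAS 1-169 (~2 µM) incubated with compound 24 h at room temperature, then quenched with formic acid. Intact-protein LC-ESI-MS on C4 column; deconvoluted peak intensities of unmodified and adducted protein give percent covalent modification.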

Another series deals with GP2D cells. As to the kind of experiment: Cell proliferation assay (CellTiter-Glo), K-Ras G12D cells. The conditions noted are these: GP2D cells (K-Ras G12D); read-out: Inhibition of GP2D Cells (IC50). The series is classed as cell-based. The method in brief: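 GP2D (K-Ras G12D) cells seeded in DMEM with 2 mM glutamine and 10% FBS, then dosed next day with a dilution series (e.g., 9-point 3-fold). Viability read by CellTiter-Glo luminescence after about 5 days. IC50 from four-parameter fit.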

A value given as a limit tells only on which side of the number the result lay.

The term IC50 denotes the concentration at which inhibition is half-maximal. As a reminder, the half-life is the time in which the quantity being followed falls by half. Read a low half-life as rapid decline.

T1 sequence (P01116 1-188 isoform P01116-2 G12S): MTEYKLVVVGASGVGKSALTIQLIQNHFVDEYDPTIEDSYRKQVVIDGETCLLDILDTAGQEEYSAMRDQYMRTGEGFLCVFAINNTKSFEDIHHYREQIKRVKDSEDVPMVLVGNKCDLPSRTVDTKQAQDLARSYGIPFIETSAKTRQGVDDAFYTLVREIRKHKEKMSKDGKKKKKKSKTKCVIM
T2 sequence (P01116 1-169 isoform P01116-2 G12S): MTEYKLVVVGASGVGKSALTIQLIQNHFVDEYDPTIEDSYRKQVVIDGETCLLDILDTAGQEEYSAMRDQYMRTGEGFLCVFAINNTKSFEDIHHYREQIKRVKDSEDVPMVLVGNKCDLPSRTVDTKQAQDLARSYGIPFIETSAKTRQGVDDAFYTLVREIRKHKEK

Regarding `N#Cc1c(N)sc2c(F)ccc(-c3c(Cl)cc4c(N5CC6CCC(C5)N6C(=O)n5ncnc5Cl)nc(OC[C@@]56CCCN5C[C@H](F)C6)nc4c3F)c12` [Compound A194], the T1/2 result in series [1] (0.5 µM) is on record as “greater than 10 mins”. The “Ratio of IC50 KRAS G12D vs. IC50 KRAS G12S” value at K-Ras G12S is “A (A: indicates that the ratio of IC50 against KrasG12D vs. IC50 against KrasG12S is 1-fold or greater)”. Also, the “% G12S Modification at 24 hr.” value in series [2] is “++ (++ indicates between about 1%- 20% labelling)”. Also, the IC50 in the series on GP2D cells is at most 1000 nM.

In series [1] (liver microsomes, pH 7.4), `N#Cc1cnn(C(=O)N2C3CCC2CN(c2nc(OC[C@@]45CCCN4C[C@H](F)C5)nc4c(F)c(-c5ccc(F)c6sc(N)c(C#N)c56)c(Cl)cc24)C3)c1` [Compound A278, 1-(3-(7-(2-amino-3-cyano-7-fluorobenzo[b]thiophen-4-yl)-6-chloro-8-fluoro-2-(((2R,7aS)-2-fluorotetrahydro-1H-pyrrolizin-7a(5H)-yl)methoxy)quinazolin-4-yl)-3,8-diazabicyclo[3.2.1]octane-8-carbonyl)-1H-pyrazole-4-carbonitrile] showed a half-life at 0.5 µM of over 10 min. Further, the “Ratio of IC50 KRAS G12D vs. IC50 KRAS G12S” value at K-Ras G12S is on record as “A (A: indicates that the ratio of IC50 against KrasG12D vs. IC50 against KrasG12S is 1-fold or greater)”. Also, in the series with GP2D cells, the IC50 is at most 1000 nM.

Values taken from EP4389751A1, “HETEROCYCLIC COMPOUNDS AND USES THEREOF” (Kumquat Biosciences Inc., priority 2021, dated 2024).
